Laboratory results published in US12059230B2, “Extending fluorescent assays in vivo for biomedical sensing: wavelength modulation spectroscopy” (MASSACHUSETTS INSTITUTE OF TECHNOLOGY, priority 2019, dated 2024).

Legend:
[1] = In vivo sensor response to riboflavin injection in SKH1-E mouse (intraperitoneal implant); details: 300 μM riboflavin injected through catheter
Text: FIGS. 5A-5H depict in vivo sensing. […] Scale bars are 5 mm. […] Sham stands for gels without a sensor, flipped configuration represents a mouse laying on its back with the signal passing through the full thickness of the animal body. […] The scale bar is 5 mm. […] The single laser excitation was at 730 nm. WIFF system was modulated at 2 Hz between 680, 730, and 780 nm. The emission collection was at >1100 nm.
FIGS. 32A-32B depict sensing experiments with mice. […] Five replicas on biologically independent animals. Sensors (10×10×2 mm^3 gel with 20 mg/l (AC)15-SWNTs)) were implanted into the intraperitoneal space of mice. […] The time t=0 corresponds to the time of injection.
The ultimate goal of fluorescent sensing is to detect analytes in vivo at the implantation point and wirelessly transmit the signal to the surface of the body. […] These types of measurements are critical for many biomedical problems focused on tissue permeability, such as targeted delivery of therapeutics, and changes in vascular permeability related to disorders, either as the origin or manifestation of various diseases. […]

[2] = In vitro hydrogel dynamics: sensor response fitted to the diffusion equation; type: physicochemical; details: 10×10×2 mm^3 gel with 20 mg/l (AC)15-SWNTs, 100 μM riboflavin
Method: FIG. 33 depicts in vitro hydrogel dynamics. […] The black curve represents the measured data, while the red line is a fit to the diffusion equation, yielding a diffusion constant of 1.04×10^−6 cm^2/s.
Hydrogel preparation. The nanotube embedded hydrogels were prepared using polyethylene glycol diacrylate from Alfa Aesar using a PEG chain length of 8000 Da (PEG8000DA). The UV triggered initiator was 2-hydroxy-4′-(2-hydroxyethoxy)-2-methylpropiophenone from Sigma Aldrich and was dissolved in a stock solution of 7 mg/mL in water before polymerization. […] The hydrogel precursor solution is held under a flowing N2 atmosphere for 30 minutes to remove dissolved oxygen. After degassing, the solution is pipetted into glass molds and returned to the nitrogen atmosphere. The molds are then exposed to 365 nm UV light (UVP Blak-Ray XX-15BLB) for 45 minutes to polymerize. Afterwards, the hydrogels were removed from the molds and left to incubate in 1×PBS overnight to remove any unreacted monomer to free-floating SWNT. Then the PBS solution was exchanged to a fresh solution and the hydrogels were ready to use.
The interaction between an analyte and the hydrogel sensor is further described with analyte diffusion. The mathematical model solves the following nondimensionalized unsteady diffusion model and boundary conditions: […]

diffusion constant in the hydrogel [2]: 1.04×10^−6 cm^2/s
SMILES: Cc1cc2nc3c(=O)[nH]c(=O)nc-3n(C[C@H](O)[C@H](O)[C@H](O)CO)c2cc1C [riboflavin]
onset time of quenching after the injection [1]: 51 s
sensor quenching ([1]; intraperitoneal sensor, WIFF): 17%
